Patent US6632816B1, “Aromatic derivatives as HIV aspartyl protease inhibitors” (Pharmacor Inc., priority 2002, dated 2003)

Molecular target: HIV protease (Human immunodeficiency virus type 1 group M subtype B, UniProt P04585)
Test: biochemical

`CCN[C@@H](Cc1ccc2ccccc2c1)C(=O)NCCCC[C@@H](CO)N(CC(C)C)S(=O)(=O)c1ccc(N)cc1` [Example 65, (2S,5S)-N-{5-[(4-Amino-benzenesulfonyl)-isobutyl-amino]-6-hydroxy-hexyl}-2-ethylamino-3-naphthalen-2-yl-propionamide] gave a Ki of 6.2 nM.

`CC(C)CN([C@H](CO)CCCCNC(=O)[C@@H](NC(=O)c1ccccn1)C(c1ccccc1)c1ccccc1)S(=O)(=O)c1ccc(N)cc1` [Example 96, (1S,5S)-Pyridine-2-carboxylic Acid (1-{5-[(4-Amino-benzenesulfonyl)-isobutyl-amino]-6-hydroxy-hexylcarbamoyl}-2,2-diphenyl-ethyl)-amide] was tested, and the Ki was under 3.8 nM.

In the case of `CC(C)CN([C@H](CO)CCCNC(=O)[C@H](Cc1cccc2ccccc12)NC(=O)OCC(F)(F)F)S(=O)(=O)c1ccc(N)cc1` [Example 7, (1S,4S)-(1-{4-[(4-Amino-benzenesulfonyl)-isobutyl-amino]-5-hydroxy-pentylcarbamoyl}-2-naphthalen-1-yl-ethyl)-carbamic Acid 2,2,2-Trifluoro-ethyl Ester], the Ki is reported as 4 nM.

With `CC(C)CN([C@H](CO)CCCCNC(=O)[C@H](Cc1ccc(-c2ccccc2)cc1)NC(=O)OC(C)(C)C)S(=O)(=O)c1ccc(N)cc1` [Example 59, (1S,5S)-(1-{5-[(4-Amino-benzenesulfonyl)-isobutyl-amino]-6-hydroxy-hexylcarbamoyl}-2-biphenyl-4-yl-ethyl)-carbamic Acid tert-Butyl Ester] the Ki was 6 nM.

`CCCCN[C@@H](Cc1ccc2ccccc2c1)C(=O)NCCCC[C@@H](CO)N(CC(C)C)S(=O)(=O)c1ccc(N)cc1` [Example 68, (2S,5S)-N-{5-[(4-Amino-benzenesulfonyl)-isobutyl-amino]-6-hydroxy-hexyl}-2-butylamino-3-naphthalen-2-yl-propionamide] was tested, and the Ki was 5.8 nM.

`CC(C)CN([C@H](CO)CCCCNC(=O)[C@@H](NC(=O)c1ccc(O)cc1)C(c1ccccc1)c1ccccc1)S(=O)(=O)c1ccc(N)cc1` [Example 102, (1S,5S)-N-(1-{5-[(4-Amino-benzenesulfonyl)-isobutyl-amino]-6-hydroxy-hexylcarbamoyl}-2,2-diphenyl-ethyl)-4-hydroxy-benzamide] was tested, and the Ki was under 3.8 nM.

Molecule `COC(=O)CN[C@@H](Cc1cccc2ccccc12)C(=O)NCCC[C@@H](CO)N(CC(C)C)S(=O)(=O)c1ccc(N)cc1` [Example 15, (1S,4S)-(1-{4-[(4-Amino-benzenesulfonyl)-isobutyl-amino]-5-hydroxy-pentylcarbamoyl}-2-naphthalen-1-yl-ethylamino)-acetic Acid Methyl Ester] has a Ki of 4.2 nM.

`CC(C)CN([C@H](CO)CCCCNC(=O)[C@H](Cc1ccc2ccccc2c1)NC(=O)N(C)C)S(=O)(=O)c1ccc(F)c(N)c1` [Example 86, (2S,5S)-N-{5-[(3-Amino-4-fluoro-benzenesulfonyl)-isobutyl-amino]-6-hydroxy-hexyl}-2-(3,3-dimethyl-ureido)-3-naphthalen-2-yl-propionamide] gave a Ki of under 3.8 nM.

In the case of `CC(C)CN([C@H](CO)CCCCNC(=O)[C@H](Cc1ccc2ccccc2c1)NCC(C)(C)C)S(=O)(=O)c1ccc(N)cc1` [Example 69, (2S,5S)-N-{5-[(4-Amino-benzenesulfonyl)-isobutyl-amino]-6-hydroxy-hexyl}-2-(2,2-dimethyl-propylamino)-3-naphthalen-2-yl-propionamide], the Ki is reported as 22 nM.

Molecule `CC(C)CN([C@H](CO)CCCCNC(=O)[C@H](Cc1ccc2ccccc2c1)NCc1ccccn1)S(=O)(=O)c1ccc(N)cc1` [Example 70, (2S,5S)-N-{5-[(4-Amino-benzenesulfonyl)-isobutyl-amino]-6-hydroxy-hexyl}-3-naphthalen-2-yl-2-[(pyridin-2-ylmethyl)-amino]-propionamide] has a Ki of 4.9 nM.

For `CC(C)CN([C@H](CO)CCCNC(=O)[C@@H](NC(=O)OC(C)(C)C)C(c1ccccc1)c1ccccc1)S(=O)(=O)c1ccc(N)cc1` [Example 16, (1S,4S)-(1-{4-[(4-Amino-benzenesulfonyl)-isobutyl-amino]-5-hydroxy-pentylcarbamoyl}-2,2-diphenyl-ethyl)-carbamic Acid tert-Butyl Ester], the Ki was 9.3 nM.

Work on `CC(C)CN([C@H](CO)CCCCNC(=O)[C@H](Cc1ccc2ccccc2c1)NC(=O)c1cnc[nH]1)S(=O)(=O)c1ccc(F)c(N)c1` [Example 114, (1S,5S)-3H-Imidazole-4-carboxylic Acid (1-{5-[(3-Amino-4-fluoro-benzenesulfonyl)-isobutyl-amino]-6-hydroxy-hexylcarbamoyl}-2-naphthalen-2-yl-ethyl)-amide] yielded a Ki of under 3.8 nM.

`COC(=O)N[C@@H](Cc1ccc2ccccc2c1)C(=O)NCCCC[C@@H](CO)N(CC(C)C)S(=O)(=O)c1ccc(F)c(N)c1` [Example 82, (1S,5S)-(1-{5-[(3-Amino-4-fluoro-benzenesulfonyl)-isobutyl-amino]-6-hydroxy-hexylcarbamoyl}-2-naphthalen-2-yl-ethyl)-carbamic Acid Methyl Ester] showed a Ki of under 3.8 nM.

`CC(C)CN([C@H](CO)CCCCNC(=O)[C@@H](N)Cc1ccc2ccccc2c1)S(=O)(=O)c1ccc(F)c(N)c1` [Example 81, (2S,5S)-2-Amino-N-{5-[(3-amino-4-fluoro-benzenesulfonyl)-isobutyl-amino]-6-hydroxy-hexyl}-3-naphthalen-2-yl-propionamide] was tested, and the Ki was under 3.8 nM.

`COC(=O)N[C@@H](Cc1ccc2ccccc2c1)C(=O)NCCCC[C@@H](CO)N(CC(C)C)S(=O)(=O)c1ccc(N)c(F)c1` [Example 116, (1S,5S) (1-{5-[(4-Amino-3-fluoro-benzenesulfonyl)-isobutyl-amino]-6-hydroxy-hexylcarbamoyl}-2-naphthalen-2-yl-ethyl)-carbamic Acid Methyl Ester] showed a Ki of under 3.8 nM.

Molecule `CC(C)CN([C@H](CO)CCCCNC(=O)[C@@H](NC(=O)c1ccc(O)nc1)C(c1ccccc1)c1ccccc1)S(=O)(=O)c1ccc(N)cc1` [Example 110, (1S,5S)-N-(1-{5-[(4-Amino-benzenesulfonyl)-isobutyl-amino]-6-hydroxy-hexylcarbamoyl}-2,2-diphenyl-ethyl)-6-hydroxy-nicotinamide] has a Ki of under 3.8 nM.

Work on `CC(C)CN([C@H](CO)CCCCNC(=O)[C@@H](NC(=O)c1ccc[nH]1)C(c1ccccc1)c1ccccc1)S(=O)(=O)c1ccc(N)cc1` [Example 98, (1S,5S)-Pyrrole-2-carboxylic Acid (1-{5-[(4-Amino-benzenesulfonyl)-isobutyl-amino]-6-hydroxy-hexylcarbamoyl}-2,2-diphenyl-ethyl)-amide] yielded a Ki of under 3.8 nM.

For `CC(C)CN([C@H](CO)CCCCNC(=O)[C@@H](N)C(c1ccccc1)c1ccccc1)S(=O)(=O)c1ccc(N)cc1` [Example 72, (2S,5S)-2-Amino-N-{5-[(4-amino-benzenesulfonyl)-isobutyl-amino]-6-hydroxy-hexyl}-3,3-diphenyl-propionamide], the Ki was 7.5 nM.

`CC(C)CN([C@H](CO)CCCCNC(=O)[C@@H](NC(=O)OCc1ccncc1)C(c1ccccc1)c1ccccc1)S(=O)(=O)c1ccc(N)cc1` [Example 101, (1S,5S)-(1-{5-[(4-Amino-benzenesulfonyl)-isobutyl-amino]-6-hydroxy-hexylcarbamoyl}-2,2-diphenyl-ethyl)-carbamic Acid Pyridin-4-ylmethyl Ester] gave a Ki of under 3.8 nM.

In the case of `CC(C)CN([C@H](CO)CCCNC(=O)[C@@H](N)Cc1ccccc1-c1ccccc1)S(=O)(=O)c1ccc(N)cc1` [Example 14, (2S,4S)-2-Amino-N-{4-[(4-amino-benzenesulfonyl)-isobutyl-amino]-5-hydroxy-pentyl}-3-biphenyl-2-yl-propionamide], the Ki is reported as 7.1 nM.
